In patent US20250195521A1 (Revolution Medicines, Inc., priority 2020, published 2025):
Where two headings read alike, the source gives them in different places.

Experiments:
[1] = system: Capan-1 cells (K-Ras G12V); assay: CellTiter-Glo cell viability, Capan-1; assay type: cell-based, human; details: K-Ras G12V, 5-day treatment, read-out: Capan-1 Cell Viability IC50
Summary of the method: (§1)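 Viability is read as luminescence after five days of compound exposure, with plates first equilibrated to room temperature for roughly 30 minutes. Each signal is expressed as a percentage of the mean DMSO control, and curves are fitted by four-parameter logistic regression.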

[2] = molecular target: KRAS G12C (Homo sapiens (Human), UniProt P01116+P62937, G12C); assay: Ras-Raf disruption/FRET/MOA assay (BRAF RBD, Cyclophilin A); assay type: biochemical; details: read-out: KRAS G12C FRET IC50
Summary of the method: (§2)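 Ras-GMPPNP (12.5 nM), BRAF RBD (50 nM) and 25 μM Cyclophilin A were incubated with compound for 3 h at 25° C, then detected 1.5 h with anti-His Eu and anti-GST APC; IC50 values follow from the reduced TR-FRET ratio.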

[3] = molecular target: KRAS G12D (Homo sapiens (Human), UniProt P01116+P62937, G12D); assay: as above; assay type: biochemical; details: read-out: KRAS G12D FRET IC50
Summary of the method: as §2

[4] = molecular target: KRAS G12S (Homo sapiens (Human), UniProt P01116+P62937, G12S); assay: as above; assay type: biochemical; details: read-out: KRAS G12S FRET IC50
Summary of the method: as §2

[5] = molecular target: KRAS G12V (Homo sapiens (Human), UniProt P01116+P62937, G12V); assay: as above; assay type: biochemical; details: read-out: KRAS G12V FRET IC50
Summary of the method: as §2

[6] = molecular target: KRAS G13C (Homo sapiens (Human), UniProt P01116+P62937, G13C); assay: as above; assay type: biochemical; details: read-out: KRAS G13C FRET IC50
Summary of the method: as §2

[7] = molecular target: KRAS G13D (Homo sapiens (Human), UniProt P01116+P62937, G13D); assay: as above; assay type: biochemical; details: read-out: KRAS G13D FRET data IC50
Summary of the method: as §2

[8] = molecular target: KRAS Q61H (Homo sapiens (Human), UniProt P01116+P62937, Q61H); assay: as above; assay type: biochemical
Summary of the method: as §2

[9] = molecular target: KRAS WT (Homo sapiens (Human), UniProt P01116+P62937); assay: as above; assay type: biochemical; details: read-out: KRAS WT FRET data IC50
Summary of the method: as §2

[10] = molecular target: NRAS G12C (Homo sapiens (Human), UniProt P01111+P62937, G12C); assay: as above; assay type: biochemical; details: read-out: NRAS G12C FRET data IC50
Sequence of NRAS G12C (P01111 whole entry G12C): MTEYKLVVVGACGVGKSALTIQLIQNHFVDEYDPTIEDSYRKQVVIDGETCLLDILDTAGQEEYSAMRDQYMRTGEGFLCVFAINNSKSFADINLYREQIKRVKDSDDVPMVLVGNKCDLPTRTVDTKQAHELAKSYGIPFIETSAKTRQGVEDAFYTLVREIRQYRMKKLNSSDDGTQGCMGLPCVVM
Sequence of NRAS G12C (P62937 whole entry): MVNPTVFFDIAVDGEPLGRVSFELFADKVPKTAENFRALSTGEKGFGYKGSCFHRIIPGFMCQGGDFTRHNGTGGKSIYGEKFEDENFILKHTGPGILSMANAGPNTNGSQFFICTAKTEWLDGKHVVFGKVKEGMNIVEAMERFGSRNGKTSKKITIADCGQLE
Summary of the method: as §2

[11] = molecular target: NRAS WT (Homo sapiens (Human), UniProt P01111+P62937); assay: as above; assay type: biochemical
Sequence of NRAS WT (P01111 whole entry): as the sequence (P01111 whole entry G12C) above, with C12G counted along it
Sequence of NRAS WT (P62937 whole entry): as the sequence (P62937 whole entry) above
Summary of the method: as §2

[12] = system: NCI-H358 cells (K-Ras G12C); assay: CellTiter-Glo cell viability, NCI-H358; assay type: cell-based, human; details: K-Ras G12C, 5-day treatment, read-out: H358 Cell Viability IC50
Summary of the method: as §1

[13] = system: K-Ras G12C (NCI-H358 cells); assay: Potency assay: pERK in NCI-H358 cells; assay type: cell-based, human; details: NCI-H358 cells, 4 hours, read-out: pERK EC50 (H358 KRAS G12C)
Summary of the method: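 Cells plated the day before were exposed for 4 h at 37° C, 5% CO2 to a 10-point, 3-fold DMSO dilution series (10 mM top stock), in duplicate. Phospho-ERK was read by AlphaLISA SureFire Ultra or by In-Cell Western with DRAQ5 DNA stain, and IC50 came from a 4-parameter sigmoidal fit.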

[14] = system: NCI-H358 (K-Ras G12C); assay: CellTiter-Glo cell viability assay, NCI-H358; assay type: cell-based, human; details: 5-day treatment, read-out: H358 Cell Viability assay data (K-Ras G12C, IC50)
Summary of the method: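 Viability is measured as ATP-dependent luminescence (CellTiter-Glo) five days into compound treatment. Responses are normalized to vehicle (DMSO) wells and fitted by four-parameter logistic regression.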

[15] = molecular target: K-Ras G12C(GMP-PNP) binding to BRAF RBD (Homo sapiens (Human), UniProt P01116+P62937, G12C); assay: Disruption of BRAF RBD interaction with K-Ras (FRET / MOA assay), K-Ras G12C; assay type: biochemical; details: read-out: KRAS G12C FRET IC50
Summary of the method: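 Compounds promote ternary complex of nucleotide-loaded Ras (here K-Ras G12C·GMP-PNP; other Ras mutants substituted) with cyclophilin A, disrupting BRAF RBD binding. 10-point 3-fold series from 30 μM final, 3 h at 25 °C, then anti-His Eu (10 nM) and anti-GST APC (50 nM) for 1.5 h. TR-FRET ratio decrease versus DMSO gave IC50.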

| Compound | IC50 ([1]; Homo sapiens, CAPAN-1, 120 h) [nM] | IC50 [2] [nM] | IC50 [3] [nM] | IC50 [4] [nM] | IC50 [5] [nM] | IC50 [6] [nM] | IC50 [7] [nM] | IC50 [8] [nM] | IC50 [9] [nM] | IC50 [10] [nM] | IC50 [11] [nM] | IC50 ([12]; Homo sapiens, NCI-H358, 120 h) [nM] | EC50 ([13]; Homo sapiens) [nM] | IC50 ([14]; Homo sapiens, NCI-H358, 120 h) [nM] | IC50 [15] [nM] | IC50 [12] [nM] | IC50 [1] [nM] | IC50 [14] [nM] | EC50 [13] [nM] |
| --- | --- | --- | --- | --- | --- | --- | --- | --- | --- | --- | --- | --- | --- | --- | --- | --- | --- | --- | --- |
| CCn1c(-c2cccnc2[C@H](C)OC)c2c3cc(ccc31)-c1csc(n1)C[C@H](NC(=O)[C@H](C(C)C)N(C)C(=O)N1CC([C@@H](C)OC)C1)C(=O)N1CCC[C@H](N1)C(=O)OCC(C)(C)C2 [Compound A278] | 10 to 100 | 10 to 100 | 100 to 1000 | 100 to 1000 | 10 to 100 | 100 to 1000 | 100 to 1000 | 10 to 100 | 10 to 100 | 10 to 100 |  |  |  |  |  |  |  |  |  |
| CCn1c(-c2cccnc2[C@H](C)OC)c2c3cc(ccc31)-c1csc(n1)C[C@H](NC(=O)[C@H](C(C)C)N(C)C(=O)N1CC[C@@H]1C)C(=O)N1CCC[C@H](N1)C(=O)OCC(C)(C)C2 [Compound A304] | 10 to 100 | 10 to 100 | 100 to 1000 | 100 to 1000 | 100 to 1000 | 100 to 1000 | 100 to 1000 | 10 to 100 | 100 to 1000 | 10 to 100 | 10 to 100 |  |  |  |  |  |  |  |  |
| CCn1c(-c2cccnc2[C@H](C)OC)c2c3cc(ccc31)-c1csc(n1)C[C@H](NC(=O)[C@H](C(C)C)N(C)C(=O)N1CCC1)C(=O)N1CCC[C@H](N1)C(=O)OCC(C)(C)C2 [Compound A399] | 10 to 100 | 10 to 100 | 100 to 1000 | 100 to 1000 | 10 to 100 | 100 to 1000 | 100 to 1000 | 10 to 100 | 100 to 1000 | 10 to 100 | 10 to 100 |  |  |  |  |  |  |  |  |
| CCn1c(-c2cccnc2[C@H](C)OC)c2c3cc(ccc31)-c1cc(O)cc(c1)C[C@H](NC(=O)[C@H](C(C)C)N(C)C(=O)[C@@H]1OCC[C@@H]1c1ccccc1)C(=O)N1CCC[C@H](N1)C(=O)OCC(C)(C)C2 [Compound A415] | 10 to 100 | 10 to 100 | 10 to 100 | 10 to 100 | 10 to 100 | 10 to 100 | 10 to 100 |  | 10 to 100 | 10 to 100 | 10 to 100 | 10 to 100 | < 5000 |  |  |  |  |  |  |
| CCn1c(-c2cccnc2[C@H](C)OC)c2c3cc(ccc31)-c1cc(O)cc(c1)C[C@H](NC(=O)[C@H](C(C)C)N(C)C(=O)[C@H]1OCC[C@H]1N)C(=O)N1CCC[C@H](N1)C(=O)OCC(C)(C)C2 [Compound A420] | 100 to 1000 | 10 to 100 | 100 to 1000 | 100 to 1000 | 100 to 1000 | 10 to 100 | 100 to 1000 |  | 100 to 1000 | 100 to 1000 |  | 100 to 1000 |  | 10 to 100 | 100 to 1000 |  |  |  |  |
| CCn1c(-c2cc(N3CCN(C)CC3)cnc2[C@H](C)OC)c2c3cc(ccc31)-c1csc(n1)C[C@H](NC(=O)[C@H](C(C)C)N(C)C(=O)[C@@H]1OCC[C@@H]1c1ccncc1)C(=O)N1CCC[C@H](N1)C(=O)OCC(C)(C)C2 [Compound A450] |  | 10 to 100 | 100 to 1000 | 100 to 1000 | 100 to 1000 | 100 to 1000 | 100 to 1000 | 10 to 100 | 100 to 1000 | 10 to 100 | 10 to 100 |  |  |  |  |  |  |  |  |
| CCn1c(-c2cccnc2[C@H](C)OC)c2c3cc(ccc31)-c1csc(n1)C[C@H](NC(=O)[C@H](C(C)C)N(C)C(=O)N(C)N(C)C)C(=O)N1CCC[C@H](N1)C(=O)OCC(C)(C)C2 [Compound A454] | 10 to 100 | 10 to 100 | 100 to 1000 | 100 to 1000 | 10 to 100 | 100 to 1000 | 100 to 1000 | 10 to 100 | 10 to 100 | 10 to 100 | 10 to 100 | 10 to 100 | < 5000 |  |  |  |  |  |  |
| CCn1c(-c2cc(N3CCN(C)CC3)cnc2[C@H](C)OC)c2c3cc(ccc31)-c1csc(n1)C[C@H](NC(=O)[C@H](C(C)C)N(C)C(=O)N1CC(C3COC3)C1)C(=O)N1CCC[C@H](N1)C(=O)OCC(C)(C)C2 [Compound A465] |  | 10 to 100 | 100 to 1000 | 10 to 100 | 10 to 100 | 10 to 100 | 100 to 1000 | 10 to 100 | 10 to 100 | 10 to 100 | 10 to 100 |  |  |  |  |  |  |  |  |
| CCn1c(-c2cccnc2[C@H](C)OC)c2c3cc(ccc31)-c1csc(n1)C[C@H](NC(=O)[C@H](C(C)C)N(C)C(=O)N1CCOC3(COC3)C1)C(=O)N1CCC[C@H](N1)C(=O)OCC(C)(C)C2 [Compound A475] | 10 to 100 | 10 to 100 | 100 to 1000 | 100 to 1000 | 100 to 1000 | 100 to 1000 | 100 to 1000 | 10 to 100 | 10 to 100 | 10 to 100 | 10 to 100 |  | < 5000 |  |  |  |  |  |  |
| CCn1c(-c2cccnc2[C@H](C)OC)c2c3cc(ccc31)-c1csc(n1)C[C@H](NC(=O)[C@H](C(C)C)N(C)C(=O)N1CC(Cc3cnn(C)c3)C1)C(=O)N1CCC[C@H](N1)C(=O)OCC(C)(C)C2 [Compound A500] |  | 10 to 100 | 100 to 1000 | 10 to 100 | 10 to 100 | 10 to 100 | 100 to 1000 | 10 to 100 | 10 to 100 | 10 to 100 | 10 to 100 |  |  |  |  |  |  |  |  |
| CCO[C@@H]1c2nc(cs2)-c2ccc3c(c2)c(c(-c2cccnc2[C@H](C)OC)n3CC)CC(C)(C)COC(=O)[C@@H]2CCCN(N2)C(=O)[C@H]1NC(=O)[C@H]1[C@H](C)[C@@H]1c1cn(C)cn1 [Compound A507, (1R,2S,3R)—N-((6^3S,3S,4S,Z)-3-ethoxy-1^1-ethyl-1^2-(2-((S)-1-methoxyethyl)pyridin-3-yl)-10, 10-dimethyl-5,7-dioxo-6^1,6^2,6^3,6^4,6^5,6^6-hexahydro-1^1H-8-oxa-2 (4,2)-thiazola-1 (5,3)-indola-6 (1,3)-pyridazinacycloundecaphane-4-yl)-2-methyl-3-(1-methyl-1H-imidazol-4-yl) cyclopropane-1-carboxamide] |  | 10 to 100 | 10 to 100 | 10 to 100 | 10 to 100 | 10 to 100 |  | 10 to 100 |  |  |  |  |  |  | 100 to 1000 | 10 to 100 | 100 to 1000 | 100 to 1000 |  |
| (2S)—N-[(8S,14S)-22-ethyl-4-hydroxy-18, 18-dimethyl-21-[6-(4-methylpiperazin-1-yl) pyridin-3-yl]-9,15-dioxo-16-oxa-10,22,28-triazapentacyclo [18.5.2.1^2,6.1^10,14.0^23,27]nonacosa-1 (26), 2,4,6 (29), 20,23 (27),24-heptaen-8-yl]-3-methyl-2-{N-methyl-1-[(3S)-1-(prop-2-enoyl) pyrrolidin-3-yl]formamido}butanamide [Compound A89] |  | 100 to 1000 | 100 to 1000 | 100 to 1000 | 100 to 1000 | 10 to 100 |  | 10 to 100 |  |  |  |  |  |  |  |  | 1000 to 10000 | 10 to 100 | < 5000 |
